Test results as given in patent US10933077B2, “TLR4 inhibitors for the treatment of human infectious and inflammatory disorders” (UNIVERSITY OF PITTSBURGH—OF THE COMMONWEALTH SYSTEM OF …, priority 2010, dated 2021).

Key:
[1] = Murine hemorrhagic shock (H/S) model, serum AST and ALT (liver damage); format: in vivo, mice; conditions: 1 mg/kg, i.p. divided in two doses (30 minutes prior to H/S and immediately prior to resuscitation); versus PBS
Procedure: An experiment was performed to test the effect of TLR4 inhibitors and C34 in particular on the tissue damage associated with hemmorhagic shock. A murine model was used in which, under sterile conditions and anesthesia induced using i.p. sodium pentobarbital (20 mg/kg), a left groin exploration was performed, and the left femoral artery was cannulated with tapered polyethylene (PE)-10 tubing and connected to a blood pressure transducer for continuous mean arterial pressure (MAP) monitoring for the duration of the experiment (6 h) as described in Sodhi, et al., 2011, Am. J. Physiol. Gastrointest. Liver Physiol. 300(5):G862-G873. To induce hemorrhagic shock, blood was withdrawn to allow the mean arterial pressure to drop to 25 mmHg over 5 minutes, and the blood pressure was maintained at this level for 150 min. The mice were then resuscitated over 10 min with lactated Ringer's solution. Sham-operated mice underwent anesthesia and femoral cannulation only. In this model system, the extent of liver damage is reflected in increased serum levels of aspartate aminotransferase (AST) and alanine transaminase (ALT).

iNOS mRNA [2] = test: CFW-NEC mouse model (formula feeding), iNOS mRNA levels; format: in vivo; conditions: 1 mg/kg, i.p., once daily for the first four days of the five day model; relative to RPLO
From the text: (§1) Inducible nitric oxide synthase (iNOS) is associated with necrotizing enterocolitis (NEC) in human infants. In a second set of experiments, the CFW-NEC mouse model system for NEC was used to evaluate the effect of various compounds from TABLES 1 and 2 above on iNOS mRNA levels. A model system for NEC was induced in newborn mouse pups by formula feeding, where control animals were breast-fed (Sodhi et al., 2010, Gastroenterol. 138(1):185-196; Richardson et al., 2010, Gastroenterol. 139(3):904-917). […] Note that RPLO stands for 505 ribosomal subunit protein L15, an acknowledged housekeeping gene, which means that it is a constitutive gene expressed at relatively constant levels by all cells and is thus used as a reference for comparing other genes which may vary under experimental conditions. In this same model system, levels of TLR4 mRNA levels were also evaluated. […] In contrast, the level of TLR4 was not increased in FF animals treated with C34 (1 mg/kg, i.p. once daily for the first four days of the five day model) and indeed mRNA levels were 30 percent below normal (see FIG. 14).

TNFα mRNA = test: Human NEC tissue explants treated with LPS, TNFα mRNA; format: cell-based; conditions: C34 10 uM, 30 minutes pretreatment; LPS 25 ug/ml, 37° C., 3 hours
Procedure: (§2) The effect of C34 was then tested on explants of human NEC tissue. These explants were obtained from human infants suffering from NEC and were prepared from NEC-affected portions of the intestine. When explants were treated with LPS (25 ug/ml, 37° C., 3 hours) the level of TNFα mRNA (FIG. 12) and iNOS mRNA (FIG. 13) increased precipitously.

[3] = system: LPS-induced NFkB activation; test: NFkB-luciferase reporter mice assay (LPS-induced endotoxemia); format: in vivo; conditions: LPS 2 mg/kg plus compound 1 mg/kg i.p.
Procedure: Compound preparation and delivery. All 65 identified compounds were received in solid form and stored at 4° C. until use. Stock solutions of each compound were made by dissolving the appropriate amount of each compound in dimethyl sulfoxide (DMSO) to yield a concentration of 10 mM. Immediately prior to injection into experimental animals, the compounds were diluted to an experimental concentration of 100 uM in phosphate-buffered saline (PBS). Total concentration of DMSO in the final diluted drug was 1%. Compounds were closely examined to insure that no precipitate formed prior to injection and were stored on ice until injection. All compounds were given via intraperitoneal (i.p.) injection in a total volume of 200 ul using a 1 cc syringe and 27 gauge needle. In all experiments listed below, the compounds were delivered to the experimental mice 30 minutes prior to injection with lipopolysaccharide (LPS) to induce endotoxemia. Control animals not receiving compound received 1% DMSO dissolved in PBS. Following drug injection, the mice were observed closely in their cages for signs of immediate toxicity or adverse reaction to the drug, including but not limited to piloerection, tachypnea, bleeding, abnormal or aggressive behavior, signs of altered mental status, and level of activity.
Induction of endotoxemia. All mice were housed and cared for at the Rangos Research Center, Children's Hospital of Pittsburgh (Pittsburgh, Pa.). All experiments were approved by the Children's Hospital of Pittsburgh Animal Care Committee and by the Institutional Review Board of the University of Pittsburgh. Swiss Webster (CFW) and NFkB-luciferase reporter mice were obtained from The Jackson Laboratory. Throughout the course of all experiments, mice were housed 4 per cage with access to food, water, and standard bedding. Endotoxemia was induced in all experiments by i.p. injection of LPS (Escherichia coli 0111:B4 purified by gel filtration chromatography, >99% pure, Sigma-Aldrich) at a dose of 2 mg/kg for 6 hours. At the end of each experiment, all animals were euthanized by CO2 hypoxia and cervical dislocation.
NFkB-luciferase reporter mice assay. NFkB-luciferase reporter mice, in which the […], were subjected to endotoxemia with or without pretreatment with experimental compounds. The experimental compounds treated by this assay were compounds 1-6, with compounds 1-3 tested first and compounds 4-6 tested later. For both experiments, the mice were 6 weeks old on the date of the experiment. […] After whole body imaging, an additional injection of luciferin is given and animals were euthanized, organs were harvested, and the extent of NFkB activation within various tissues was further analyzed by an additional luminescence image of the individual organs. […]

TLR4 mRNA = test: CFW-NEC mouse model (formula feeding), TLR4 mRNA levels; format: in vivo; conditions: 1 mg/kg, i.p. once daily for the first four days of the five day model
From the text: as §1

iNOS mRNA [4] = test: Human NEC tissue explants treated with LPS, iNOS mRNA; format: cell-based; conditions: C34 10 uM, 30 minutes pretreatment; LPS 25 ug/ml, 37° C., 3 hours
Procedure: as §2

Question: For `CC(=O)NC1C(OC(C)C)OC(COC(C)=O)C(OC(C)=O)C1OC(C)=O` (centres unmarked) [Compound 34, isopropyl 3,4,6-tri-O-acetyl-2-(acetylamino)-2-deoxyhexopyranoside], which “increase in serum ALT in H/S animals” value [1] is on record?
Answer: inhibited the increases

Question: What about the “increase in serum AST in H/S animals” value [1] of the same compound?
Answer: inhibited the increases in AST

Question: And the “increase of iNOS mRNA level in formula-fed (FF) pups” value (iNOS mRNA [2])?
Answer: almost eliminated

Question: And the “LPS-induced increase of TNFα mRNA” value (TNFα mRNA)?
Answer: substantially reduced

Question: And the “NFκB signalling (luciferase imaging)” value [3]?
Answer: reduced NFκB signalling

Question: And the “level of TLR4 mRNA in FF animals” value (TLR4 mRNA)?
Answer: not increased

Question: And the “TLR4 mRNA levels below normal” value (TLR4 mRNA; FF animals)?
Answer: 30%

Question: What about the “LPS-induced increase of iNOS mRNA” value (iNOS mRNA [4]) of the same compound?
Answer: substantially reduced
